Laboratory results published in patent US10017535B2, “Amphiphilic compounds with neuroprotective properties” (USTAV ORGANICKE CHEMIE A BIOCHEMIE AV CR, v.v.i., priority 2014, dated 2018).

Legend:
[1] = system: laboratory mice, strain CD-1; experiment: Passive avoidance test (aversive motivated memory); assay type: in vivo; note: key: −: the desired effect was not observed; −/+: the desired effect was insufficient; +: the desired effect was observed
Experimental: (§1) In the Experimental Part 1 were used adults (30-35 g) male laboratory mice, strain CD-1 from Velaz facility, Czech Republic. Mice were housed in plastic boxes with a 12-hour light cycle (lights on at 7:00 pm). Mice had free access to food and water.
Aversive motivated memory test was evaluated on the basis of latency input into the preferred, but unpleasant sensation associated with delivery device.

[2] = system: laboratory mice, strain CD-1; assay type: in vivo; conditions: intraperitoneally, 1 mg/kg; note: key: −: the desired effect was not observed; −/+: the desired effect was insufficient; +: the desired effect was observed
Experimental: as §1
Thus there were prepared solutions of the four steroids for application rates of 0.1, 1, 10 and 100 mg/kg.
Laboratory mouse was chosen as a model organism for this experiment. The following experiments were performed as described in Front Behay. Neurosci.
The purpose of the primary behavioral testing was quickly determined the effect of compounds on CNS dependent functions and any signs of toxicity. A simplified modification Irwin test was selected with respect to the behavioral profile of NMDA receptor antagonists. Mice were tested individually. The study drug was administered intraperitoneally (Table 3) at a dose of 1 mg/kg. The control group consisted of individuals that received the CDX solution or saline.

[3] = target: T1, NR1-1a/NR2B NMDA receptor (Rattus norvegicus, UniProt P35439+Q00960); experiment: Patch-clamp inhibition of glutamate-evoked currents at recombinant NMDA receptors in transfected HEK293 cells; assay type: cell-based; conditions: for IC50: calculated from relative steroid-induced inhibition, Hill's coefficient 1.2, read-out: IC50
T1 construct: expressed in transfected cells; host or cells: HEK293 cells (ATCC CRL1573)
Method in brief: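 HEK293 cells co-transfected with rat NR1-1a/NR2B plus GFP were whole-cell patch-clamped 16-40 h post-transfection at −60 mV. Currents were evoked by 1 mmol·l^−1 glutamate with 10 μmol·l^−1 glycine in ECS pH 7.3, and steroid was co-applied in DMSO via fast perfusion. IC50 came from relative inhibition.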

[4] = system: NMDA lesion of the dorsal hippocampus in rats; experiment: Active allothetic place avoidance (AAPA) after bilateral excitotoxic NMDA lesion of dorsal hippocampus; assay type: in vivo, rat Long-Evans strain; conditions: for NMDA lession Improvement in Cognition in AAPA after NMDA Lession: 1 mg/kg after NMDA lesion; for NMDA lession Improvement in Cognition in AAPA after NMDA Lession: key: −: the desired effect was not observed; −/+: the desired effect was insufficient; +: the desired effect was observed
Experimental: In the Experimental Part 2 were used adult (3 months old, 300-400 g) male rat Long-Evans strain. The animals come from herds Institute of Physiology ASCR. The rats were housed in clear plastic boxes with the same light cycle as in mice. Animals had free access to food and water. All experiments were carried out in the light of clay. All experiments were carried out in accordance with the Law on protection of animals against cruelty.
The anesthetized rats were used in operations isoflurane (3.5%, Baxter). To recall excitotoxic lesion of the dorsal hippocampus was applied 0.05 mol·l^−1 solution of NMDA (Sigma-Aldrich) in 0.4 mol·l^−1 phosphate buffer solution prepared by mixing 356 g Na2HPO4.12H2O (Mw358.14) in 4.2 l of distilled water and a solution of 62.4 g NaHPO4. 2H2O (Mw156.01) in 0.8 l of distilled water. The pH of the resulting solution of NMDA was adjusted to 7.4 with NaOH.
In this experiment, the neuroprotective effects were evaluated for amphiphilic steroid compounds. The procedure was performed according to Neuropharmacology 61, 61-68 (2011)
The rats were randomly divided into eleven groups. The control group included operated animals, which were injected by phosphate buffer […] into the hippocampus. In the second group, the animals had NMDA lesions of the hippocampus. The animals of the third group were applied clinically used NMDA antagonist memantine at a dose of 5 mg/kg after NMDA lesion. The other groups were administered the compounds at a dose of 1 mg/kg.
The test was performed in rotating arena with prohibited sector in the form of a circular sector (60°). If the rat entered the sector, its limbs received weak electrical impulse.
Test memory and spatial cognition in rats using AAPA was evaluated over four sessions, which are in healthy rats sufficient to achieve asymptotic level (Behay. Brain. Res. 189, 139-144 (2008)). To evaluate memory and spatial cognition was used data from the fourth session, and the number of entries into the forbidden sector and the maximum avoidance sector. […] After the experiment, the localization of the lesion was histologically verified.
Data were analyzed using the non parametric test of Maim Whitney criteria using the GraphPad. The difference was considered significant for p<0.05, for a non-significant tendency then for 0.05<p<0.075.

[5] = 1 mg/kg after surgery, vs NMDA group

T1 sequence (Q00960 27-1482, other chains not shown): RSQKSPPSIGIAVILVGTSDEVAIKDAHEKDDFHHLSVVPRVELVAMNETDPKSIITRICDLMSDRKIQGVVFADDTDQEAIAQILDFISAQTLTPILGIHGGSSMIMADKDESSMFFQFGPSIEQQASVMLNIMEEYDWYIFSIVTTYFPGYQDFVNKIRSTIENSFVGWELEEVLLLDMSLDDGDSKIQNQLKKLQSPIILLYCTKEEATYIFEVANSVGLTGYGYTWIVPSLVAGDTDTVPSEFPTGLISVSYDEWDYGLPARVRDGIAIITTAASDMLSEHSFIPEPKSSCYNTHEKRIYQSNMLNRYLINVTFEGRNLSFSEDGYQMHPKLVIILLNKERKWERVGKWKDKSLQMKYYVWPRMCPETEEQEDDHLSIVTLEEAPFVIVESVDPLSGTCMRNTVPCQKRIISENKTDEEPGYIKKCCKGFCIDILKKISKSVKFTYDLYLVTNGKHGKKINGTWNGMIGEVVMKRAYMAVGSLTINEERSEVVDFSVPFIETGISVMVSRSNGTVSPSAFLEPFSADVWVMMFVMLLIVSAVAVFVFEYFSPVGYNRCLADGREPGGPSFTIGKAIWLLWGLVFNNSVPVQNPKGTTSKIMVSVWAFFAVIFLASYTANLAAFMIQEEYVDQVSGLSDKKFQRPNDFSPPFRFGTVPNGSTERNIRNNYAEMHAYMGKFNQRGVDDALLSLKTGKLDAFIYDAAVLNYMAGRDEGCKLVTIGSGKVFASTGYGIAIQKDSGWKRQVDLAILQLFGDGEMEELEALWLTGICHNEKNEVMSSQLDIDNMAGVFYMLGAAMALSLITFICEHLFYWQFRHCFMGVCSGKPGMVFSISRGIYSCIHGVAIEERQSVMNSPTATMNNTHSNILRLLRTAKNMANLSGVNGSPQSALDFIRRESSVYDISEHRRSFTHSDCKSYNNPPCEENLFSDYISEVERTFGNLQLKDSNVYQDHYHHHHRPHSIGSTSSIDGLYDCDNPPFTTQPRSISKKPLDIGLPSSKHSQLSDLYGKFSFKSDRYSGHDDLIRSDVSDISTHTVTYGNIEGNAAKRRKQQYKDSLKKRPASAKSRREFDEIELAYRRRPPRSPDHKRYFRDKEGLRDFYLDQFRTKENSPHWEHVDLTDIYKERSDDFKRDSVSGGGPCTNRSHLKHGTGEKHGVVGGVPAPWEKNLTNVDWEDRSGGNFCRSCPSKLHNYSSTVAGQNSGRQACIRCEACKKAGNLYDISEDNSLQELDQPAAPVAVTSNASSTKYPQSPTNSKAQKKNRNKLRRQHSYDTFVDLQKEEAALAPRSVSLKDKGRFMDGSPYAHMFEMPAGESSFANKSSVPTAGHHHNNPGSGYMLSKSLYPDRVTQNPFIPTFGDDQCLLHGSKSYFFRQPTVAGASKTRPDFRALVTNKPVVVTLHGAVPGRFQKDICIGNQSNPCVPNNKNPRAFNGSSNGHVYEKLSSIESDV

| Molecule | Passive Avoidance Test No Memory Violation [1] | Behavioural Test No Evidence of Toxicity [2] | inhibition at 10 µM ([3]; HEK293, steroid concentration 10 μmol·l^−1, 1 mmol·l^−1 glutamate, −60 mV, read-out: Mean % change ± SD) | IC50 [3] | NMDA lession Improvement in Cognition in AAPA after NMDA Lession [4] | inhibition at 1 µM ([3]; HEK293, read-out: Mean % change ± SD) | maximum time avoiding the sector, fourth session of AAPA [4, 5] | number of entries into the forbidden sector, fourth session of AAPA [4, 5] | Mean % change ± SD ([3]; steroid concentration 100 μmol·l^−1, 1 mmol·l^−1 glutamate, −60 mV) |
| --- | --- | --- | --- | --- | --- | --- | --- | --- | --- |
| C[C@@]12CCCCC1[C@@H]1CC[C@@H]3C[C@H](OC(=O)[C@@H](N)CCC(=O)O)CC[C@]3(C)[C@H]1CC2 (stereo partly drawn) [Compound 106, (4S)-4-Amino-5-(((2R,4aS,4bS,6aS,10bS,12aR)-4a,6a-dimethyloctadekahydrochrysen-2-yl)oxy)-5-oxopentanoic acid] | + | + | 48.7 ± 6.3% | 10.6 µM | − |  |  |  |  |
| C[C@@]12CCC[C@H]1[C@@H]1CC[C@@H]3C[C@H](OC(=O)[C@@H](N)CCC(=O)O)CC[C@]3(C)[C@H]1CC2 [Compound 130, (4S)-4-Amino-5-(((3R,5R,8S,9S,10S,13S,14S)-10,13-dimethylhexadecahydro-1H-cyclopenta[a]phenanthren-3-yl)oxy)-5-oxopentanoic acid] | + | + |  | 1.6 µM |  | 36.7 ± 7% | significantly increased | significant reduction |  |
| Pyridinium (3S,3aS,5bR,7aR,9R,11aS,11bS,13aR)-3,11a-dimethylhexadecahydro-1H,3H-naphtho[2′,1′:4,5]indeno[1,7a-c]furan-9-yl 9-sulfate [Compound 124] | −/+ | + |  | 51 µM | − |  |  |  | 69.1 ± 4.0% |
